Experimental data taken from US20240174727A1, “LONG-ACTING NATRIURETIC PEPTIDES AND USES THEREOF” (Eli Lilly and Company, priority 2022, published 2024).
Where two headings read alike, the source gives them in different places. Numbered stars: 1 amine (or outer) side, 2 acyl side, 3 side chain; on linkers, the order of the positions; unused ones are H or OH. Bridge positions count the residues as written; N and C are the ends. Square brackets hold non-standard residues; d marks the D form. Peptide text beside a SMILES is read from it. * marks the point of attachment. PEG24 = NCCOCCOCCOCCOCCOCCOCCOCCOCCOCCOCCOCCOCCOCCOCCOCCOCCOCCOCCOCCOCCOCCOCCOCCOCCC(=O)O; C20 diacid = O=C(O)CCCCCCCCCCCCCCCCCCC(=O)*; γGlu = O=C(O)[C@H](CCC(=O)[*:2])N[*:1]; 4Pal = N[C@@H](Cc1ccncc1)C(=O)O; Aib = CC(C)(N)C(=O)O; CH2 = C([*:1])[*:2]

Target: T1, human NPRA (Homo sapiens, UniProt P16066)
T1 construct: Full-Length cDNA Cloning and Generation of Cell Lines Overexpressing Natriuretic Peptide Receptors (NPRs); expressed in transfected cells; host or cells: Jump-in T-Rex HEK293 cells, pJTI R4 CMV-TO MCS pA vector, tetracycline induction
T1 sequence (P16066 33-1061): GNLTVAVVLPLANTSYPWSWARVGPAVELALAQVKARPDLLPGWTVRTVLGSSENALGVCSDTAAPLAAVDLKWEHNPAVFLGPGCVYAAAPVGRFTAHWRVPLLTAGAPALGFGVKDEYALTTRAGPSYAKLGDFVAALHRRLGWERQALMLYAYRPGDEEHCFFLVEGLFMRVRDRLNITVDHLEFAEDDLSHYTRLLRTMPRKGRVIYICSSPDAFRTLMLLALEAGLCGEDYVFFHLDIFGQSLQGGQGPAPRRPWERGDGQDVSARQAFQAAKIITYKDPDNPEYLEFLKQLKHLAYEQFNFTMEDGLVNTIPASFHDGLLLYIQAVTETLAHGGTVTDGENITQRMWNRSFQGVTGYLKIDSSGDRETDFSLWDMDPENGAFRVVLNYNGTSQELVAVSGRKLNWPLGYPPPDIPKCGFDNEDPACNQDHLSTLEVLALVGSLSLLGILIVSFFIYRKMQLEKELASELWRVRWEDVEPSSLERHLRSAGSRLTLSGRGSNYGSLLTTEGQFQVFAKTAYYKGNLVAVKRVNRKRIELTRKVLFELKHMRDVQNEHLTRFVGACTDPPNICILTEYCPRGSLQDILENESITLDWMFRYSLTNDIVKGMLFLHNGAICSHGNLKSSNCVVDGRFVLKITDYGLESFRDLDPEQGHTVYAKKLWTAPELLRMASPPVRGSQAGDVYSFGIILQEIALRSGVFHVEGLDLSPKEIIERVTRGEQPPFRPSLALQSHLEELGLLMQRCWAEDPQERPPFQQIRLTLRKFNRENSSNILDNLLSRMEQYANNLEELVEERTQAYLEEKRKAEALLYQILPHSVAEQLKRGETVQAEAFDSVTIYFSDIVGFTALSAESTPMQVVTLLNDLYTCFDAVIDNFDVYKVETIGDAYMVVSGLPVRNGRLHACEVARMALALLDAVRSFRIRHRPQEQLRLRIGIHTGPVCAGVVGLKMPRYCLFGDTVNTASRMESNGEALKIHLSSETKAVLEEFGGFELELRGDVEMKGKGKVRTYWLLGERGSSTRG
Assay: Human NPRA cGMP activity assay (HTRF) in HEK293 cells overexpressing NPRA
Format: cell-based
Method: All sequences were verified by full-length sequencing performed by ACGT DNA Sequencing Services (Wheeling, IL). The target cDNA was cloned into pJTI R4 CMV-TO MCS pA vector and then co-transfected with pJT1R4 Int vector into Jump-in™ T-Rex™ HEK293 cells for mammalian inducible expression using Jump-in™ T-Rex™ HEK293 kit and Lipofectamine LTX and Plus Reagent following manufacturer's protocols, as briefly described below.
Jump-in™ T-Rex™ HEK293 cells were plated in a BioCOAT® poly-D-lysine coated 6-well plate (Becton Dickinson, cat no. 354413) at 1 million cells/well in 2 mL culture medium and incubated for 18 h at 37° C. and 5% CO2 to 50-70% confluence. A cDNA mix was made in a 50 mL tube by adding 1.5 μg target cDNA, 1.5 μg pJT1R4 Int vector, 3 μL Plus Reagent, and 300 μL Opti-MEM I sequentially into the tube. A reagent mix was made in a separate 50 mL tube by adding 7.5 μL Lipofectamine LTX into 300 μL Opti-MEM I. The mixtures were incubated for 5 min at room temperature. The cDNA mix was then transferred into the reagent mix, mixed well, and incubated for additional 30 min at room temperature. A 500 μL of cDNA/Lipofectamine complex was then transferred to the wells of the cell plate in which the culture medium was changed to 2 mL of transfection medium containing DMEM with 4.5 g/L D-glucose supplemented with 10% FBS-HI and 20 mM HEPES. Transfected cells were cultured for 48 h in an incubator at 37° C. and 5% CO2. A subclone or pool from each overexpressing cell line was maintained in culture medium with the addition of 2 mg/mL G418 sulfate for the clone selection based on its built-in resistance to G418 sulfate for at least 3 weeks with medium changed every 2-3 days.
NPRs were overexpressed in T-Rex™ HEK293 cells following the induction with 300 ng/mL tetracycline in culture medium for 48 h. Induced cell lines in an exponential growth phase were treated with 0.05% trypsin-EDTA for a few seconds at room temperature, harvested in cell medium containing FBS to neutralize the trypsin, counted, and cryopreserved at the density of 2 million cells/mL in cell preservation solution containing FBS-HI with 5% DMSO. Cryopreserved cells were stored at −80° C. for a few days prior to transferring to a liquid nitrogen tank. Induced cell lines were then used for suspension assays to measure the activity of polypeptides to stimulate cGMP production in cGMP assays or for the preparation of cell membranes to measure the binding activity of polypeptides in competitive radioligand binding assays, as described below.
Test polypeptides were added starting at 10 μM concentration and at 10-fold decreasing concentrations to obtain 8-point concentration-response curves (i.e., 10 μM to 1 pM). The quantity of cGMP generated was detected using HTRF® technology and normalized to maximum amount produced by 100 nM amidated rat ANP and the minimum amount produced by assay buffer. Detailed steps are outlined below.
Stock solutions of test polypeptides (2 mM) dissolved in DMSO were first diluted 100-fold in assay buffer containing HBSS with Ca^2+ and Mg^2+, 5 mM HEPES, 0.5 mM IBMX, and 0.1% BSA or 0.1% casein (pH 7.4). The polypeptides were further serially diluted in 1:10 dilution steps in assay buffer containing 0.1% BSA or 0.1% casein to generate 8-point 2× working stock solutions ranging from 20 μM to […].
A 10 μL cell suspension containing 4000 cells was plated in Costar® half-area white opaque 96-well plates (Corning, cat no. 3693). Then 10 μL of assay buffer (basal activity), 200 nM of amidated rat ANP (maximum activity) or 2× working stock solutions of test polypeptides were transferred into the plate. Final concentration of DMSO in each well was 0.5%. The plate was shaken for 15 sec and then incubated for 40 min at room temperature.
The cGMP generated was measured using cGMP kit following the manufacturer's directions, as described below.

[1] = cGMP Assay (EC50, pM) w/Casein hNPRA, assay buffer with 0.1% casein
[2] = assay buffer with 0.1% BSA, read-out: cGMP Assay (EC50, pM) w/BSA hNPRA

| Molecule | EC50 [1] [pM] | EC50 [2] [pM] | further results |
| --- | --- | --- | --- |
| CC[C@H](C)[C@@H]1NC(=O)[C@H](CCCNC(=N)N)NC(=O)[C@H](CC(=O)O)NC(=O)[C@H]([C@@H](C)CC)NC(=O)[C@H](CCCNC(=N)N)NC(=O)[C@H](CCCCN)NC(=O)CNC(=O)[C@H](Cc2ccccc2)NC(=O)[C@@H](NC(=O)[C@H](CO)NC(=O)[C@H](CO)NC(=O)[C@H](CCCNC(=N)N)NC(=O)[C@@H]2CCCN2C(=O)[C@H](CCCCN)NC(=O)[C@H](CCC(=O)O)NC(=O)COCCOCCNC(=O)COCCOCCNC(=O)COCCOCCNC(=O)COCCOCCNC(=O)COCCOCCNC(=O)COCCOCCNC(=O)COCCOCCNC(=O)COCCOCCNC(=O)CNC(=O)[C@H](CCCCN)NC(=O)[C@H](CCC(=O)O)NC(=O)[C@H](CCCCN)NC(=O)[C@H](CCC(=O)O)NC(=O)[C@H](CCCCN)NC(=O)[C@H](CCC(=O)O)NC(=O)CC[C@H](NC(=O)CCCCCCCCCCCCCCCCCCC(=O)O)C(=O)O)CSCSC[C@@H](C(=O)N2CCC[C@H]2C(=O)N[C@@H](CO)C(=O)N[C@@H](Cc2ccccc2)C(=O)N[C@@H](CCCNC(=N)N)C(=O)N[C@@H](Cc2c[nH]cn2)C(=O)N[C@@H](CO)C(=O)NCC(=O)N[C@@H](CO)C(=O)N2CCC[C@H]2C(=O)N[C@@H](CO)C(=O)N[C@@H](CO)C(=O)NCC(=O)N[C@@H](C)C(=O)N2CCC[C@H]2C(=O)N2CCC[C@H]2C(=O)N2CCC[C@H]2C(=O)N[C@@H](CO)C(=O)NCC(N)=O)NC(=O)CNC(=O)[C@H](CC(C)C)NC(=O)CNC(=O)[C@H](CO)NC(=O)[C@H](Cc2ccc(O)cc2)NC(=O)[C@H](Cc2c[nH]cn2)NC(=O)CNC1=O [Example 126] | 1090 | – | – |
| {C20 diacid-γGlu}-EKEKEKG[PEG24]S[4Pal]RRSSCFGGRIDRIGHQSGLGCPSFRHGGPPS[Aib]KPPPK-NH2 (linker 15-31 via CH2) [Example 84] | – | – | EC50 (assay buffer with 0.1% casein, read-out: cGMP Assay (EC50, pM) w/Casein hNPRA): 1010 pM |
| CC[C@H](C)[C@@H]1NC(=O)[C@H](CCCNC(=N)N)NC(=O)[C@H](CC(=O)O)NC(=O)[C@H]([C@@H](C)CC)NC(=O)[C@H](CCCNC(=N)N)NC(=O)CNC(=O)CNC(=O)[C@H](Cc2ccccc2)NC(=O)[C@@H](NC(=O)[C@H](CO)NC(=O)[C@H](CO)NC(=O)[C@H](CCCNC(=N)N)NC(=O)[C@H](CCCNC(=N)N)NC(=O)[C@H](CC(C)C)NC(=O)[C@H](CO)NC(=O)CNC(=O)[C@H](CCCCN)NC(=O)[C@H](CCC(=O)O)NC(=O)[C@H](CCCCN)NC(=O)[C@H](CCC(=O)O)NC(=O)[C@H](CCCCN)NC(=O)[C@H](CCC(=O)O)NC(=O)CC[C@H](NC(=O)CCCCCCCCCCCCCCCCCCC(=O)O)C(=O)O)CSSC[C@@H](C(=O)N[C@@H](CC(N)=O)C(=O)N[C@@H](CO)C(=O)N[C@@H](Cc2ccccc2)C(=O)N[C@@H](CCCNC(=N)N)C(=O)N[C@@H](Cc2ccncc2)C(N)=O)NC(=O)CNC(=O)[C@H](CC(C)C)NC(=O)CNC(=O)[C@H](CO)NC(=O)[C@H](CCC(N)=O)NC(=O)[C@H](C)NC(=O)CNC1=O [Example 9] ({C20 diacid-γGlu}-EKEKEKGSLRRSSCFGGRIDRIGAQSGLGCNSFR[4Pal]-NH2; disulfide 14-30) | – | 101000 | – |
| CC[C@H](C)[C@@H]1NC(=O)[C@H](CCCNC(=N)N)NC(=O)[C@H](CC(=O)O)NC(=O)[C@H]([C@@H](C)CC)NC(=O)[C@H](CCCNC(=N)N)NC(=O)CNC(=O)[C@H](Cc2ccncc2)NC(=O)[C@H](Cc2ccccc2)NC(=O)[C@@H](NC(=O)[C@H](CO)NC(=O)[C@H](CO)NC(=O)[C@H](CCCNC(=N)N)NC(=O)[C@H](CCCNC(=N)N)NC(=O)[C@H](CC(C)C)NC(=O)[C@H](CO)NC(=O)CNC(=O)[C@H](CCCCN)NC(=O)[C@H](CCC(=O)O)NC(=O)[C@H](CCCCN)NC(=O)[C@H](CCC(=O)O)NC(=O)[C@H](CCCCN)NC(=O)[C@H](CCC(=O)O)NC(=O)CC[C@H](NC(=O)CCCCCCCCCCCCCCCCCCC(=O)O)C(=O)O)CSSC[C@@H](C(=O)N[C@@H](CC(N)=O)C(=O)N[C@@H](CO)C(=O)N[C@@H](Cc2ccccc2)C(=O)N[C@@H](CCCNC(=N)N)C(=O)N[C@@H](Cc2ccc(O)cc2)C(N)=O)NC(=O)CNC(=O)[C@H](CC(C)C)NC(=O)CNC(=O)[C@H](CO)NC(=O)[C@H](CCC(N)=O)NC(=O)[C@H](C)NC(=O)CNC1=O [Example 13] ({C20 diacid-γGlu}-EKEKEKGSLRRSSCF[4Pal]GRIDRIGAQSGLGCNSFRY-NH2; disulfide 14-30) | – | 145000 | – |
| CC[C@H](C)[C@@H]1NC(=O)[C@H](CCCNC(=N)N)NC(=O)[C@H](CC(=O)O)NC(=O)[C@H]([C@@H](C)CC)NC(=O)[C@H](CCCNC(=N)N)NC(=O)[C@H](CCCCN)NC(=O)CNC(=O)[C@H](Cc2ccccc2)NC(=O)[C@@H](NC(=O)[C@H](CO)NC(=O)[C@H](CO)NC(=O)[C@H](CCCNC(=N)N)NC(=O)[C@@H]2CCCN2C(=O)[C@H](CCCCN)NC(=O)[C@H](CCC(=O)O)NC(=O)CNC(=O)[C@H](CCCCN)NC(=O)[C@H](CCC(=O)O)NC(=O)[C@H](CCCCN)NC(=O)[C@H](CCC(=O)O)NC(=O)[C@H](CCCCN)NC(=O)[C@H](CCC(=O)O)NC(=O)CC[C@H](NC(=O)CCCCCCCCCCCCCCCCCCC(=O)O)C(=O)O)CSCSC[C@@H](C(=O)N2CCC[C@H]2C(=O)N[C@@H](CO)C(=O)N[C@@H](Cc2ccccc2)C(=O)N[C@@H](CCCNC(=N)N)C(=O)N[C@@H](Cc2c[nH]cn2)C(=O)NCC(=O)N[C@@H](CO)C(=O)N2CCC[C@H]2C(=O)N[C@@H](CO)C(=O)N[C@@H](CO)C(=O)NCC(=O)N[C@@H](C)C(=O)N2CCC[C@H]2C(=O)N2CCC[C@H]2C(=O)N2CCC[C@H]2C(=O)N[C@@H](CO)C(N)=O)NC(=O)CNC(=O)[C@H](CC(C)C)NC(=O)CNC(=O)[C@H](CO)NC(=O)[C@H](Cc2ccc(O)cc2)NC(=O)[C@H](CCCN)NC(=O)CNC1=O [Example 135] | 497 | – | EC50 (cGMP Assay (EC50, pM) w/BSA hNPRA, assay buffer with 0.1% BSA): 104000 pM |
